The text below walks through data of patent publication US5698672A, “Synthetic calcitonin mimetics” (ZymoGenetics, Inc., priority 1995, dated 1997).

The target of test [1] is hamster calcitonin receptor (Mesocricetus auratus, UniProt A0A3Q0D7K7). Kind of test: CRE-luciferase induction in Boris/KZ10-3 cells (hamster calcitonin receptor).
The subject of test [2] is KZ10-20-48/Zem 228 (calcitonin receptor-negative BHK cells). Kind of test: CRE-luciferase induction in receptor-negative KZ10-20-48/Zem 228 cells. The settings on record: Mesocricetus auratus, read-out: EC50, CRE-luciferase induction.
Test [3] relates to KZ10-20-48 (BHK 570 cells with CRE-luciferase reporter). As to the kind of experiment: CRE-luciferase induction in BHK/KZ10-20-48 cells. The class given is cell-based, hamster. The settings on record: clone KZ10-20-48; 25 mM forskolin, 4 hours; range 15-25 fold.
In test [4] the target is T1, human calcitonin receptor (Homo sapiens, UniProt P30988).
T1 construct: expressed in transfected cells; host or cells: BHK 570 derivative KZ10-20-48 (clone Hollex-1)
T1 sequence (P30988 25-474): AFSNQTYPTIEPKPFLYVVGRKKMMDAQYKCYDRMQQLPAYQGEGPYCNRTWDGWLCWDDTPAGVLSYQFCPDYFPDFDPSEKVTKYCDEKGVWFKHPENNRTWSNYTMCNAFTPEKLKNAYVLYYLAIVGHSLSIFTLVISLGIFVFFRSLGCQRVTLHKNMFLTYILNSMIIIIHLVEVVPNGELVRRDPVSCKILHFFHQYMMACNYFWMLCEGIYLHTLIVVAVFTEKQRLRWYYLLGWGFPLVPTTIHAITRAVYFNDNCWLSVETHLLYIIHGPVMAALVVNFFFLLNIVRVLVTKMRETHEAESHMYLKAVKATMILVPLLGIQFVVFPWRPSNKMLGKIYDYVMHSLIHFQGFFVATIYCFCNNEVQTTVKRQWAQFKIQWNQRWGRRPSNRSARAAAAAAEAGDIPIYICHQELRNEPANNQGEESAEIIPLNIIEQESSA
As to the kind of experiment: CRE-luciferase induction in Hollex-1 cells (BHK, human calcitonin receptor). Format: cell-based.

In test [5] the target is human glucagon receptor (Homo sapiens, UniProt P47871). The settings on record: KZ10-20-48/pLJ6-4-25.
From the text: Test substances that appeared to specifically elevate luciferase expression in calcitonin receptor-positive cells, but not calcitonin receptor-negative cells, were subjected to an additional specificity check, i.e., their inability to activate other members of the G-protein coupled-receptor family.
Test [6] has as its system PTH induced bone resorption in mouse calvariae. As to the kind of experiment: Calvarial assay: PTH induced bone resorption, calcium release. Format: cell-based. The settings on record: 1 nM PTH 1-34, 72 hours, neonatal mouse calvariae; read-out: Inhibition of Ca++ Release EC50. Here is the method:
Calvaria from 4-day old neonatal CD-1 mice (pregnant mice received from Charles River Laboratories, Wilmington, Mass.) were trimmed with fine-tipped scissors to leave the parietal regions, including the sagittal suture. These trimmed bones were placed singly per well into 6-well cell culture cluster plates (Costar, Pleasanton, Calif.) with 1 ml/well of growth medium (DMEM (BioWhittaker, Walkersville, Md.) with 4.5 g/L glucose, 0.29 mg/ml L-glutamine, 1 mM sodium pyruvate, 15% heat-inactivated horse serum, and antibiotics (penicillin-G […], streptomycin […], and neomycin […])), and rocked gently (RedRocker™, model PR50-115V) (Hoefer, San Francisco, Calif.) at 37° C. in a 5% CO2 humidified incubator for 24 hours preincubation.
Following incubation, medium was removed and replaced with 1.5 ml/well of growth medium containing 1 nM parathyroid hormone (PTH) 1-34 (Sigma) to stimulate bone resorption. For evaluation of the ability of synthetic calcitonin mimetics to inhibit PTH induced bone resorption, mimetic compounds in DMSO were added to the growth medium at concentrations ranging from […] (final assay concentration of DMSO less than or equal to 1%). In each experiment human calcitonin (0.02-20 nM, 0.2-2 nM preferred) was added to PTH treated bones as a positive control. […]

Test [7] relates to calcitonin receptor. As to the kind of experiment: CRE-luciferase assay for calcitonin mimetics (calcitonin receptor-positive cell line, Hollex-1 or Boris/KZ10). The class given is cell-based. The settings on record: calcitonin receptor-positive cells; cell line not given; read-out: CRE-Luciferase Induction EC50. From the text:
All synthetic calcitonin mimetics are subjected to an assay system that permits rapid identification of substances having selective calcitonin receptor activity on cells expressing the calcitonin receptor. Only those modifications which retain calcitonin-like activity, as assayed by the CRE-luciferase assay for example, are within the scope of this invention. The calcitonin receptor is a member of the G-protein receptor family and transduces signal via activation of adenylate cyclase, leading to elevation of cellular cAMP levels (Lin et al., Science 254:1022-24, 1991). This assay system exploits the receptor's ability to elevate cAMP levels as a way to detect other molecules, not calcitonin, that are able to stimulate the calcitonin receptor and initiate signal transduction.

For test [8], the system named is osteoclasts in mouse calvariae. Kind of test: Calvaria histology: osteoclast number and size. Format: cell-based. The settings on record: PTH induced bone resorption in mouse calvariae. From the text: To confirm the findings in the calvarial bone resorption assay employing calcium release from culture mouse calvariae, selected bones were fixed in 10% neutral buffered formalin and demineralized in 5% formic acid with 5% formalin. The bones were dehydrated through an ascending series of ethanol concentrations, infiltrated in glycol methacrylate, and embedded using a JB-4 embedding kit (PolySciences, Warrington, Pa.) (Liu and Kalu, J. Bone Miner. Res., 5:973-82, 1990). Cross sections of calvariae cut at […] were obtained and stained for tartrate-resistant acid phosphatase (TRAP) activity and counterstained with methyl green and thionin for cell morphology (Liu and Kalu, J. Bone. Miner. Res. 1990, supra). osteoclasts were identified by TRAP stain, multinucleation, large cell size, and irregular cell shape. The number of osteoclasts were counted from endocranial and ectocranial bone surfaces and expressed as number/mm perimeter. The size of all the osteoclasts counted was also measured using a Bone Morphometry program (Lui and Kalu, supra.; Bain et al., J. Bone Miner. Res. 8:435-42, 1993). […] This PTH-induced increase was suppressed by treatment with human calcitonin.
Calcitonin mimetic compounds were evaluated in a similar fashion for their ability to suppress PTH-induced increases in osteoclast number and size. Cell toxicity (or death) was also evaluated morphologically. […]

[ ]: non-standard residue; d: D form. Aib = CC(C)(N)C(=O)O

Chain of hamster calcitonin receptor (A0A3Q0D7K7 entry or part of it): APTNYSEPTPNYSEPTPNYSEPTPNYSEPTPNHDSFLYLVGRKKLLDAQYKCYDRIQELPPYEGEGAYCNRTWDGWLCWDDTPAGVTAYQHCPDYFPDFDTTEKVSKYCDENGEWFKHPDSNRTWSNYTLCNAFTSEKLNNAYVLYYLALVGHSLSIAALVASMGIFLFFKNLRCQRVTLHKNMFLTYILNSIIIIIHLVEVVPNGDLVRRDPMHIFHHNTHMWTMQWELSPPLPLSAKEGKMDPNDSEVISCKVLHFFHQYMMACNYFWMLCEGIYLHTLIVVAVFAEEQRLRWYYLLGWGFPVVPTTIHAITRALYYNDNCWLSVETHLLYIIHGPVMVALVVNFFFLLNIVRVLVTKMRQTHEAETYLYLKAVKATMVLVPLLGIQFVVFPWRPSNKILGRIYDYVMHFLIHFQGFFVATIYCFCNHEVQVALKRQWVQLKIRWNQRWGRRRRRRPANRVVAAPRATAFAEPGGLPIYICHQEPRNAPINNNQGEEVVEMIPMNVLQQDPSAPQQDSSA
Chain of human glucagon receptor (P47871 26-477): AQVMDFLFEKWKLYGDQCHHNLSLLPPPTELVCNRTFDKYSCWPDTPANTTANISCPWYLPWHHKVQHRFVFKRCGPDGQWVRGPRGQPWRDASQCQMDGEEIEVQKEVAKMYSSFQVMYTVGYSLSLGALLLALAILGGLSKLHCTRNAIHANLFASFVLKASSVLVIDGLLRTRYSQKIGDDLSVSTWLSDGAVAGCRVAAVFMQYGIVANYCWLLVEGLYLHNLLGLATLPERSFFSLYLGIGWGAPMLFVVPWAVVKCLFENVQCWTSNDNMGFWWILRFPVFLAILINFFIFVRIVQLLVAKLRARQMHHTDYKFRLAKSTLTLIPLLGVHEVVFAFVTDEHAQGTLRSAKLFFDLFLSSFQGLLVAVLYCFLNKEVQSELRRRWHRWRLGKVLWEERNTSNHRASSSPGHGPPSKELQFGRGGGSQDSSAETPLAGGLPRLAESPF

For `C=C[C@@]1(C)CC(=O)[C@]2(O)[C@@]3(C)[C@@H](O)CCC(C)(C)[C@@H]3[C@H](O)[C@H](OC(C)=O)[C@@]2(C)O1` [forskolin], the figures for the induction of luciferase in test [1] and in test [5] were 25 fold and 35 fold, respectively. Moreover, the values for the EC50 in test [2] and in test [4] were 600 nM and 1200 nM, respectively. In addition, the “induction of CRE-luciferase” value in test [3] worked out at 20 fold.
As for “Ac-W[Aib]Q[Aib]IT[Aib]L[Aib]PQ[Aib]PF-OH [Synthetic 2807]”, the EC50 in test [6] turned out to be 36000 nM; in test [7], 2280 nM. In addition, in test [8], the Histology result was “Inhibitory”.
